Among the data in PMC8803441, “Identification of 20(S)-Ginsenoside Rh2 as a Potential EGFR Tyrosine Kinase Inhibitor” (Oxidative Medicine and Cellular Longevity, 2022) are IC50 values, retold here.

This assay has as its target T1, Epidermal growth factor receptor (EGFR) kinase (Homo sapiens, UniProt P00533).
T1 construct: EGFR protein (GST-tagged)
The assay can be described thus: HTRF KinEASE-TK kinase assay with GST-tagged EGFR. Type of assay: biochemical.

The structures appear in SMILES notation.

T1 sequence (P00533 25-1210): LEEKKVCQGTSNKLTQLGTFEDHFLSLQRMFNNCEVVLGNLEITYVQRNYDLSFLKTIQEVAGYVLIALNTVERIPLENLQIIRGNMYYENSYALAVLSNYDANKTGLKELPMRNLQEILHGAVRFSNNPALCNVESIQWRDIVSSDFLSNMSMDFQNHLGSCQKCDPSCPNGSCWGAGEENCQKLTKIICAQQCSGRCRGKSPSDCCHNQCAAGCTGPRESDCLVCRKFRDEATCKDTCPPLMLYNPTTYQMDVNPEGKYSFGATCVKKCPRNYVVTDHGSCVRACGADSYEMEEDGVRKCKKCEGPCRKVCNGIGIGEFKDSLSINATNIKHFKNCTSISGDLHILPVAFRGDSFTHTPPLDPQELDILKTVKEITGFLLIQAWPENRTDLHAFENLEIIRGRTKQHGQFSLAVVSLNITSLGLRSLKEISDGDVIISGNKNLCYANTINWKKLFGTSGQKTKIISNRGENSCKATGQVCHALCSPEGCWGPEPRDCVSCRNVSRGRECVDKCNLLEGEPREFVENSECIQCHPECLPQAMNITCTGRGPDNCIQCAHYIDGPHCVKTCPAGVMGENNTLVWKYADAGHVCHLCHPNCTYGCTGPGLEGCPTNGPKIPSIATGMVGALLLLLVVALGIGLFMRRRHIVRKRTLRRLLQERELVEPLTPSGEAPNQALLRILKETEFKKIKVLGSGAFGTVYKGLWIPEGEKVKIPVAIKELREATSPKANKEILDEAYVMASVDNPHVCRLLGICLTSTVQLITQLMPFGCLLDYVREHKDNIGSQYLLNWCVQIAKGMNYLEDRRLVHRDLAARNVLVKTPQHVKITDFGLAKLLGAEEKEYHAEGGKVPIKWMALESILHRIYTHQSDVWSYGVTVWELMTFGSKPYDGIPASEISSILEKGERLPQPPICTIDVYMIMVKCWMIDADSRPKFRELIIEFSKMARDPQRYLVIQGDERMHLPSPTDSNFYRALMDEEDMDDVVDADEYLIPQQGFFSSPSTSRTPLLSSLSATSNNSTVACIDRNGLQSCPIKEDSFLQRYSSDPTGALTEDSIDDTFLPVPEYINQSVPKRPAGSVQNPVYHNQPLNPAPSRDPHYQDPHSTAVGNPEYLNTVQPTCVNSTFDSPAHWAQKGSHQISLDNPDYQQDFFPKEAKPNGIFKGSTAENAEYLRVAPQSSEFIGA

As for `CC(C)=CCC[C@](C)(O)[C@H]1CC[C@]2(C)[C@@H]1[C@H](O)C[C@@H]1[C@@]3(C)CC[C@H](O[C@@H]4O[C@H](CO)[C@@H](O)[C@H](O)[C@H]4O)C(C)(C)[C@@H]3CC[C@]12C` [20(S)-ginsenoside Rh2], 2780 ± 160 nM corresponded to half-maximal inhibition (IC50).
